According to patent US20240261259A1 (priority 2021, published 2024):

System: FLT3 mutant positive AML
Assay: Clinical response to midostaurin plus chemotherapy, Princess Margaret cohort of 54 AML patients
Assay type: in vivo, human
[1] = midostaurin plus chemotherapy, 54 FLT3 mutant-positive AML patients

For `CO[C@@H]1[C@H](N(C)C(=O)c2ccccc2)C[C@H]2O[C@]1(C)n1c3ccccc3c3c4c(c5c6ccccc6n2c5c31)C(=O)NC4` [midostaurin, N-[(9S,I0R,I IR,I3R)-2,3,I0,I I,I2,I3-hexahydro-I0-methoxy-9-methyl-I-oxo-9,I3-epoxy-IH, 9H-diindolo[1,2,3-gh: 3′,2′,I′-Im]pyrrolo[3,4-j][I, 7]benzodiazonin-I I-yl]-N-methylbenzamide], the “Responses to midostaurin, average” value [1] was 84 weeks, the “Responses to midostaurin, range” value [1] was 0-513 weeks and the “patients refractory or relapsed at the time of carrying out the analysis” value (of 54 AML patients treated with midostaurin plus chemotherapy) was 25 patients.
